From US10507218B2, “Treatment of cardiovascular disease by using gallium compounds to bind calcified lesions” (LIPIDRISK, LLC, priority 2018, dated 2019)

Assays:
[1] = Treatment of plantar fasciitis by topical gallium nitrate solution (single patient); type: in vivo, human
Procedure: The patient was having continuous severe pain from the plantar fasciitis for over six months after treatments with injected cortisone, special braces and hydrotherapy none of which gave relief.
Patient was treated with 5 ml's of 14% gallium nitrate solution applied to the bottom of the affected foot for 30 minutes every other day for three treatments. After each treatment the remaining solution was washed off and the exact amount of absorbed gallium nitrate was not measured. […] The plantar fasciitis has not returned for 10 years. The pain elimination from reduced inflammation is an indicator that the gallium ions bonded to the calcified structures at an inflammation site.

[2] = Treatment of rheumatoid arthritis of the wrist by topical gallium nitrate solution (single patient); type: in vivo, human; settings: about 100 mg
Procedure: Patient had persistent rheumatoid arthritis of the wrist for over six months and was treated with a single dose of ¾ ml of 14% gallium nitrate solution, about 100 mg, as a topical application for one hour. […] Again, the pain elimination from reduced inflammation is an indicator that the gallium ions bonded to the calcified structures at an inflammation site.

[3] = animal studies; cited from earlier work
[4] = design: dose or concentration left out as unconfirmed; settings: of gallium nitrate over 5-7 days; cited from earlier work

## O=[N+]([O-])[O-].O=[N+]([O-])[O-].O=[N+]([O-])[O-].[Ga+3] [gallium nitrate]
[1]; 5 ml of 14% gallium nitrate solution on bottom of affected foot, 30 minutes, every other day, three treatments
  pain relief after each treatment: complete relief of pain for several hours after each treatment
[1]; after three topical treatments
  time without return of plantar fasciitis: ≥ 10 years
[1]; one week after third topical treatment
  pain outcome after the third treatment: the pain disappeared completely one week later
[2]; single topical dose of ¾ ml of 14% gallium nitrate solution, one hour
  immediate pain relief: Some pain relief was noticed immediately
[2]; single topical dose
  arthritic pain after two months: the arthritic pain was not noticeable
  duration without arthritic pain in the wrist: has not experienced arthritic pain in the wrist for two years
[3]
  carbonyl oxidation and protein nitration: reduction of carbonyl oxidation and protein nitration
[4]
  reduction of calcium excretion: 70+18%
